Measured values: patent publication US20120128665A1, “PRESELECTION OF SUBJECTS FOR THERAPEUTIC TREATMENT BASED ON HYPOXIC STATUS” (SYNTA PHARMACEUTICALS CORP., priority 2010, published 2012)
Where two headings read alike, the source gives them in different places.

Assays:
[1] = test system: wide range of cancer types; conditions: cited from earlier work
[2] = test system: HCT116 tumors vs 786O tumors; test: response of hypoxic vs non-hypoxic tumors; type: in vivo, nude mice; conditions: doses as in the 3rd table
[3] = test system: cancer of the parotid gland; conditions: one patient; ganetespib 150 mg/m^2 with docetaxel 75 mg/m^2; cited from earlier work
[4] = test system: advanced relapsed/refractory NSCLC; conditions: cited from earlier work
solid tumors = conditions: once-weekly dosing; cited from earlier work
[5] = test system: HER2-negative, metastatic breast cancer; conditions: added to standard chemotherapy; cited from earlier work
[6] = test system: metastatic pancreatic cancer; conditions: cited from earlier work
glioblastoma [7] = conditions: 56 patients treated with bevacizumab alone; cited from earlier work
[8] = test system: metastatic colorectal cancer; conditions: cited from earlier work
[9] = test system: 786-O human renal carcinoma xenograft; test: 786-O xenograft model (non-hypoxic tumor); type: in vivo, nude mice
Description: (§1) Human tumor cell lines HCT116 (ATCC #CRL-247; Schroy PC, et al. Cancer 76:201-209, 1995) and 786-O (ATCC #CRL-1932; Williams RD, et al. In Vitro 12:623-627, 1976), were obtained from the American Type Culture Collection (Manassus, Va., USA) were cultured using routine methods until a sufficient number of cells were obtained for implantation. Studies were conducted on animals between 7 and 12 weeks of age at implantation. To implant HCT116 tumor cells into nude mice, the cells were trypsinized, washed in PBS and resuspended at a concentration of 75×10^6 cells/ml in McCoy's modified medium with 50% of BD Matrigel® Basement Membrane Matrix (BD Biosciences®, Bedford, Mass., USA). To implant 786-O tumor cells into nude mice, the cells were trypsinized as above, washed in PBS and resuspended at a concentration of 75×10^6 cells/ml in RPMI 1640 medium with 50% of BD Matrigel® Basement Membrane Matrix. Using a 27 gauge needle and 1 cc syringe, 0.1 ml of the cell suspension was injected into the corpus adiposum of nude mice. The corpus adiposum is a fat body located in the ventral abdominal vicera in the right quadrant of the abdomen at the juncture of the os coxae (pelvic bone) and the os femoris (femur). The location permits palpation and measurement of the tumors using external calipers. Tumor volumes (V) were calculated by caliper measurement of the width (W), length (L) and thickness (T) of tumors using the following formula: V=0.5236×(L×W×T). Animals were randomized into treatment groups so that the average tumor volumes of each group were similar at the start of dosing.
(§2) A tumor model in which the tumors have relatively high and low levels of LDH5, indicating high and low levels of hypoxia, using human tumor cell lines HCT116 and 786-O was established as set forth in the previous example.
(§3) As above, HCT116 and 786-O cells were cultured and implanted into nude mice using the methods in the previous example. Tumor growth was measured using calipers. Prior to treatment with the various agents, tumors were permitted to develop in vivo until they reached approximately 150 mm^3 in volume, which typically required 2-3 weeks following implantation. Animals were randomized into treatment groups so that the average tumor volumes of each group were similar at the start of dosing.
(§4) Tumor volume was monitored throughout the course of the study, until up to about 40 days from the date of tumor implantation. The exact number of days of the study depended on a number of factors including, for example, the number of days from implantation for the tumors to reach the desired volume.

renal cancer = conditions: cited from earlier work
glioblastoma [10] = conditions: 85 patients treated with bevacizumab alone; cited from earlier work
[11] = test system: metastatic colorectal cancer; conditions: cited from earlier work; remark: listed apart in the source
[12] = test system: HCT116 human colon carcinoma xenograft; test: HCT116 xenograft model (hypoxic tumor); type: in vivo, nude mice
Description: as §1, §2, §3, §4

[13] = test system: advanced non-squamous, non-small cell lung cancer (NSCLC); conditions: bevacizumab arm = with paclitaxel and carboplatin; comparator chemotherapy alone; statistically significant; cited from earlier work

For `CC(C)c1cc(-c2nnc(O)n2-c2ccc3c(ccn3C)c2)c(O)cc1O` [ganetespib], the “activity against cancers resistant to imatinib, sunitinib, erlotinib and dasatinib” value [1] is given as “potent activity”, the “activity against a wide range of cancer types” value ([1]; lung, prostate, colon, breast, gastric, pancreatic, GIST, melanoma, AML, CML, lymphomas, multiple myeloma, in vitro and in vivo models) is given as “potent activity” and the “effectiveness at slowing tumor growth in tumors with high levels of hypoxia (HCT116) compared with low levels (786O)” value [2] is given as “not found to work better”. For the same compound, the “shrinkage of target tumor lesions, confirmed partial response” value [3] was “over 50%”, the “patients with durable, objective responses” value ([4]; ALK rearrangement, four patients) was 50% and the “patients who received ganetespib for 16 weeks or more” value ([4]; ALK rearrangement, seven of eight) was 88%. The “patients with tumor shrinkage” value ([4]; ALK rearrangement, six of eight patients) was 75%, the disease control rate ([4]; broad population) was 54% and the “hepatic and ocular toxicities” value ([4]; compared with other Hsp90 inhibitors) was “did not have the serious hepatic or common ocular toxicities”. The tolerability ([4]; in vivo) was “well tolerated”, the “patients with tumor shrinkage” value ([4]; tumors with a KRAS mutation) was 62% and the “evaluable patients with disease control” value (solid tumors) was “more than half”. The “outcome in several patients who had progressed or failed multiple prior therapies” value (solid tumors) was “substantial tumor shrinkage and prolonged disease control”.

In the case of “bevacizumab: recombinant humanized monoclonal IgG1 antibody that binds to and inhibits human vascular endothelial growth factor (VEGF)”, the “keeping cancer from worsening” value [5] is given as “does not keep cancer from worsening for a long enough time to be clinically meaningful”, the “progression free survival HR” value ([6]; bevacizumab vs placebo arm, both with gemcitabine and erlotinib, 95% CI 0.61 to 0.96, P=0.0002) is given as 0.73 and the median overall survival ([6]; bevacizumab, gemcitabine and erlotinib, 306 patients) is given as 7.1 months. For the same compound, the patients who responded (glioblastoma [7]) was 20%, the median survival ([8]; bevacizumab and 5-FU/Leucovorin (n=249) vs IFL regimen alone) was 17.9 months and the progression-free survival ([8]; bevacizumab plus 5-FU/Leucovorin vs IFL regimen alone) was 8.7 months. The “effectiveness at slowing tumor growth in tumors with high levels of hypoxia (HCT116) compared with low levels (786O)” value [2] was “more effective”, the “tumor burden as compared to control” value ([9]; bevacizumab higher dose (4 mg/kg) i.p., p=0.011) was “greatest tumor burden” and the “tumor burden as compared to control” value ([9]; low dose bevacizumab (1 mg/kg) i.p., p=0.437) was “no significant difference in tumor burden”. The “patients with decreased tumor size” value (renal cancer; bevacizumab arm = with interferon-alpha, comparator interferon-alpha alone) was 30%, the “increase in progression-free survival time compared to interferon-alpha alone” value (renal cancer; bevacizumab with interferon-alpha) was “about 5 months” and the “patients whose tumors shrank” value (glioblastoma [10]) was 26%. The median survival ([11]; bevacizumab arm = bevacizumab plus 5-FU/Leucovorin, comparator 5-FU/Leucovorin alone, not statistically significant) was 16.6 months, the “improvement in median survival” value ([11]; bevacizumab plus 5-FU/Leucovorin vs 5-FU/Leucovorin alone) was 29% and the “tumor growth as compared to control” value ([12]; bevacizumab higher dose (4 mg/kg) i.p., p=0.0424) was “reduced the growth of the tumor”. The “tumor growth as compared to control” value ([12]; bevacizumab lower concentration (1 mg/kg) i.p., p=0.1274) was “small trend to decreased tumor growth” and the median overall survival [13] was 12.5 months.
